Test results taken from the supplement of paper PMC10307832.

How the values were obtained:
Assay in all cases: relative viability (nuclei count vs DMSO), 5 days (fraction); higher = more cells survive
Vemurafenib + Tozasertib = compound: CCCS(=O)(=O)Nc1ccc(F)c(C(=O)c2c[nH]c3ncc(-c4ccc(Cl)cc4)cc23)c1F [Vemurafenib] + Cc1cc(Nc2cc(N3CCN(C)CC3)nc(Sc3ccc(NC(=O)C4CC4)cc3)n2)n[nH]1 [Tozasertib] (partner 0.1 µM)
How it was run: (§1)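 Relative viability is defined as nuclei in treated wells over nuclei in vehicle wells. Duplicate plates were run and medians reported. Lung cancer cell lines in 1536-well plates were dosed by pin tool one day after seeding, with one drug or with a fixed anchor-drug dose plus five library-drug doses (not always all listed) in √10 steps, and nuclei were counted after 5 days.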

Vemurafenib + Linsitinib = compound: CCCS(=O)(=O)Nc1ccc(F)c(C(=O)c2c[nH]c3ncc(-c4ccc(Cl)cc4)cc23)c1F [Vemurafenib] + C[C@]1(O)C[C@@H](c2nc(-c3ccc4ccc(-c5ccccc5)nc4c3)c3c(N)nccn32)C1 [Linsitinib] (partner 1 µM)
How it was run: as §1

OSI-027 + Linsitinib = compound: COc1cccc2cc(-c3nc([C@H]4CC[C@H](C(=O)O)CC4)n4ncnc(N)c34)[nH]c12 [OSI-027] + C[C@]1(O)C[C@@H](c2nc(-c3ccc4ccc(-c5ccccc5)nc4c3)c3c(N)nccn32)C1 [Linsitinib] (partner 1 µM)
How it was run: as §1

Alpelisib + Bortezomib = compound: Cc1nc(NC(=O)N2CCC[C@H]2C(N)=O)sc1-c1ccnc(C(C)(C)C(F)(F)F)c1 [Alpelisib] + CC(C)C[C@H](NC(=O)[C@H](Cc1ccccc1)NC(=O)c1cnccn1)B(O)O [Bortezomib] (partner 0.002 µM)
How it was run: as §1

| Cell Line | relative viability (Vemurafenib + Tozasertib; first compound 0.03162 µM) | relative viability (Vemurafenib + Tozasertib; first compound 0.1 µM) | relative viability (Vemurafenib + Tozasertib; first compound 0.3162 µM) | relative viability (Vemurafenib + Tozasertib; first compound 1 µM) | relative viability (Vemurafenib + Linsitinib; first compound 0.03162 µM) | relative viability (Vemurafenib + Linsitinib; first compound 0.1 µM) | relative viability (Vemurafenib + Linsitinib; first compound 0.3162 µM) | relative viability (Vemurafenib + Linsitinib; first compound 1 µM) | relative viability (OSI-027 + Linsitinib; first compound 0.01 µM) | relative viability (OSI-027 + Linsitinib; first compound 0.03162 µM) | relative viability (OSI-027 + Linsitinib; first compound 0.1 µM) | relative viability (OSI-027 + Linsitinib; first compound 0.3162 µM) | relative viability (OSI-027 + Linsitinib; first compound 1 µM) | relative viability (Alpelisib + Bortezomib; first compound 0.04 µM) | relative viability (Alpelisib + Bortezomib; first compound 0.1265 µM) | relative viability (Alpelisib + Bortezomib; first compound 0.4 µM) | relative viability (Alpelisib + Bortezomib; first compound 1.265 µM) | relative viability (Alpelisib + Bortezomib; first compound 4 µM) |
| --- | --- | --- | --- | --- | --- | --- | --- | --- | --- | --- | --- | --- | --- | --- | --- | --- | --- | --- |
| NCI-H1915 | 0.436 | 0.439 | 0.411 | 0.342 | 1.05 | 1 | 1.05 | 1.04 | 1.11 | 1.13 | 1.12 | 1.02 | 0.863 | 0.991 | 1.04 | 0.947 | 0.887 | 0.805 |
| NCI-H1975 | 0.688 | 0.635 | 0.45 | 0.238 | 1 | 0.962 | 0.725 | 1.05 | 1.09 | 1.03 | 0.822 | 0.706 | 0.339 | 0.419 | 0.318 | 0.355 | 0.238 | 0.189 |
| NCI-H1993 | 0.473 |  | 0.569 | 0.571 | 0.668 |  | 0.882 | 0.746 | 0.684 | 0.777 | 0.703 | 0.603 | 0.681 | 1.09 | 1.03 | 1.02 | 0.791 | 0.489 |
| NCI-H2009 | 0.698 | 0.644 | 0.625 | 0.648 | 1.19 | 1.03 | 1.09 | 1.06 | 1.25 | 1.2 | 1.16 | 1.03 | 0.765 | 1.03 | 0.982 | 1.24 | 0.89 | 0.859 |
| NCI-H2023 | 0.335 | 0.241 | 0.273 | 0.18 | 0.655 | 0.552 | 0.831 | 0.666 | 0.622 | 0.507 | 0.566 | 0.292 | 0.143 | 0.926 | 0.952 | 0.942 | 0.57 | 0.601 |
| NCI-H2085 | 0.754 | 0.727 | 0.802 | 0.508 | 0.862 | 0.626 | 0.797 | 1.01 | 0.884 | 0.847 | 0.82 | 0.753 | 0.422 | 0.982 | 1.08 | 0.816 | 0.927 | 0.842 |
| NCI-H2087 | 0.249 | 0.236 |  | 0.132 | 0.882 | 0.94 |  | 0.868 | 1.03 | 0.845 | 0.819 | 0.632 | 0.29 | 0.651 | 0.78 | 0.893 | 0.685 | 0.47 |
| NCI-H2126 | 0.812 | 0.786 |  | 0.809 | 0.804 | 0.699 | 0.757 | 0.681 | 0.739 | 0.593 | 0.536 | 0.416 | 0.701 | 1.06 | 1.06 | 1.03 | 0.974 | 0.81 |
| NCI-H2228 | 0.228 | 0.234 | 0.244 | 0.21 | 0.819 | 0.587 | 0.773 | 0.587 | 0.637 | 0.768 | 0.576 |  | 0.368 | 0.933 | 0.807 | 0.922 | 0.696 | 0.537 |
| NCI-H2347 | 0.452 | 0.53 | 0.507 | 0.482 | 0.941 | 1.01 | 0.76 | 0.964 | 1.03 | 0.877 | 0.883 | 0.885 | 0.521 | 0.784 | 0.849 | 1.12 | 1.08 | 0.876 |
| NCI-H2405 | 0.756 | 0.708 |  | 0.717 | 0.952 | 0.776 |  | 0.983 | 0.871 | 0.81 | 0.702 | 0.404 | 0.393 | 0.997 | 0.835 | 0.927 | 0.83 | 0.696 |
| NCI-H3122 | 0.398 | 0.335 | 0.371 | 0.365 | 1 | 0.895 | 1.01 | 1.13 | 1.04 | 1.04 | 1.07 | 0.763 | 0.289 | 0.992 | 1.08 | 0.984 | 1.12 | 0.999 |
| PC-3 [JPC-3] | 0.853 |  | 0.904 | 0.881 | 0.909 |  | 1.02 | 1.03 | 0.943 | 1.01 | 0.971 | 0.867 | 0.834 | 0.873 | 0.901 | 0.766 | 0.768 | 0.66 |
| PC-14 | 0.557 |  | 0.376 | 0.551 | 0.93 |  | 0.922 | 0.995 | 0.944 | 0.946 | 0.891 | 0.914 | 0.582 | 0.801 | 0.882 | 1.16 | 0.773 | 0.747 |
| RERF-LC-KJ | 0.486 | 0.487 | 0.415 | 0.397 | 0.833 | 0.86 | 0.924 | 0.923 | 0.839 | 0.776 | 0.655 | 0.503 | 0.376 | 1.1 | 1.08 | 1.32 | 1.01 | 0.934 |
| SK-LU-1 | 0.255 | 0.283 | 0.294 | 0.298 | 0.93 | 0.958 | 0.915 | 1.03 | 1.06 | 0.83 | 0.63 | 0.406 | 0.306 | 1.36 | 0.723 | 1.01 | 0.805 | 0.934 |
| SW 1573 | 0.162 | 0.192 | 0.193 | 0.26 | 0.791 | 0.886 | 0.935 | 0.795 | 0.777 | 0.712 | 0.771 | 0.586 | 0.462 | 0.898 | 0.947 | 1 | 0.72 | 0.651 |
